According to the supplement of paper PMC11208160:

Assay: recombinant UMI read abundance after kanamycin selection (control-corrected) (log10(CPM+1)); higher = more efficient recombination; extreme values may be limits of the assay; sequences stand for … in AGTGCAGAGAAAATCGGCCAGTTTTCTCTGCCTGCAGTCCGCATGCCGTGGGACCCCTTGGGTTCTAACCTGTTGCCTAGATTTATGCAGCGGACTGCCTTTCTCCCAAAGTGATAAACCGG…AGGTTGGTTTCACT; site = the 11-nt donor
Procedure, shortened: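 In a pooled Escherichia coli screen for the IS621 bridge recombinase, donor and donor-binding-loop pairs were each placed with a 12-nt UMI on a plasmid bearing a promoterless kanamycin gene. This library was co-electroporated with a target plasmid encoding a fixed target and T7-inducible recombinase, and cells were plated either on IPTG (0.07 mM) plus kanamycin or without selection, in two replicates each. Recombinant UMIs were PCR-amplified across the donor–target junction and sequenced, and counts were converted to CPM, averaged over replicates, scaled by control-derived factors and reported as log10(CPM+1).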
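Note: IS621 bridge recombinase in Escherichia coli cells against a fixed T5 target plasmid.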

| Sequence | recombinant UMI read abundance (log10) |
| --- | --- |
| TAGTCGACATGGACCGGTTTTCCCGGTAATCCGTATTTGGG (site CAGTCGACTCC) | 0.0191 |
| TAGTCGACATGGACCGGTTTTCCCGGTAATCCGTATTTGGG (site GAGTCGACTCC) | 0.0292 |
| TAGTCGACATGGACCGGTTTTCCCGGTAATCCGTATTTGGG (site TAGTCGACTCC) | 0.0301 |
| TAGTCGGCATGGACCGGTTTTCCCGGTAATCCGTATTTGAT (site TAGTCGGCTAT) | 0.387 |
| TAGTTAGCATGGACCGGTTTTCCCGGTAATCCGTATTTGAA (site TAGATAGCTTT) | 0.0157 |
| TAGTTAGCATGGACCGGTTTTCCCGGTAATCCGTATTTGAA (site TAGCTAGCTTT) | 0.407 |
| TAGTTAGCATGGACCGGTTTTCCCGGTAATCCGTATTTGAA (site TAGGTAGCTTT) | 0.00722 |
| TAGTTAGCATGGACCGGTTTTCCCGGTAATCCGTATTTGAA (site TAGTTAGCTTT) | 1.33 |
| TATAACTCATGGACCGGTTTTCCCGGTAATCCGTATTTGGC (site TATAACTCTGC) | 1.35 |
| TATACACCATGGACCGGTTTTCCCGGTAATCCGTATTTGAC (site TATACACCTGT) | 0 |
| TATACACCATGGACCGGTTTTCCCGGTAATCCGTATTTGAC (site TCTACACCTGT) | 0.0077 |
| TATACACCATGGACCGGTTTTCCCGGTAATCCGTATTTGAC (site TGTACACCTGT) | 0 |
| TATACACCATGGACCGGTTTTCCCGGTAATCCGTATTTGAC (site TTTACACCTGT) | 0 |
| TATATCTCATGGACCGGTTTTCCCGGTAATCCGTATTTGAA (site TATATCTCTTT) | 0.835 |
| TATATCTCATGGACCGGTTTTCCCGGTAATCCGTATTTGTA (site TATATCTCTTA) | 1.93 |
| TATCCTCCATGGACCGGTTTTCCCGGTAATCCGTATTTGTT (site TATCCTCCTAA) | 0.0195 |
| TATCCTTCATGGACCGGTTTTCCCGGTAATCCGTATTTGGT (site TAACCTTCTAC) | 0.00593 |
| TATCCTTCATGGACCGGTTTTCCCGGTAATCCGTATTTGGT (site TACCCTTCTAC) | 0.0066 |
| TATCCTTCATGGACCGGTTTTCCCGGTAATCCGTATTTGGT (site TAGCCTTCTAC) | 0.0208 |
| TATCCTTCATGGACCGGTTTTCCCGGTAATCCGTATTTGGT (site TATCCTTCTAC) | 0.31 |
| TATCGATCATGGACCGGTTTTCCCGGTAATCCGTATTTGAC (site TATCGATCTGT) | 1.86 |
| TATCTAGCATGGACCGGTTTTCCCGGTAATCCGTATTTGAA (site TAACTAGCTTT) | 0.0105 |
| TATCTAGCATGGACCGGTTTTCCCGGTAATCCGTATTTGAA (site TACCTAGCTTT) | 0.131 |
| TATCTAGCATGGACCGGTTTTCCCGGTAATCCGTATTTGAA (site TAGCTAGCTTT) | 0.00935 |
| TATCTAGCATGGACCGGTTTTCCCGGTAATCCGTATTTGAA (site TATCTAGCTTT) | 0.502 |

| Sequence | recombinant UMI read abundance (log10) |
| --- | --- |
| TATCTATCATGGACCGGTTTTCCCGGTAATCCGTATTTGTC (site TATCTATCTGA) | 1.59 |
| TATCTCGCATGGACCGGTTTTCCCGGTAATCCGTATTTGCA (site TATCTCGCTTG) | 0.374 |
| TATCTGGCATGGACCGGTTTTCCCGGTAATCCGTATTTGTG (site TATATGGCTCA) | 0.0189 |
| TATCTGGCATGGACCGGTTTTCCCGGTAATCCGTATTTGTG (site TATCTGGCTCA) | 0.0196 |
| TATCTGGCATGGACCGGTTTTCCCGGTAATCCGTATTTGTG (site TATGTGGCTCA) | 0.00259 |
| TATCTGGCATGGACCGGTTTTCCCGGTAATCCGTATTTGTG (site TATTTGGCTCA) | 0.00973 |
| TATGCGGCATGGACCGGTTTTCCCGGTAATCCGTATTTGAT (site TATGCGGCTAT) | 0.581 |
| TATGCTACATGGACCGGTTTTCCCGGTAATCCGTATTTGGC (site TATGCTACTGC) | 0.253 |
| TATGGGCCATGGACCGGTTTTCCCGGTAATCCGTATTTGCT (site TATGGGCCTAG) | 0 |
| TATGGTACATGGACCGGTTTTCCCGGTAATCCGTATTTGGC (site TATGGTACTGC) | 1.67 |
| TATGTACCATGGACCGGTTTTCCCGGTAATCCGTATTTGGT (site TATGTACCTAC) | 0.011 |
| TATGTCTCATGGACCGGTTTTCCCGGTAATCCGTATTTGCC (site TATGTCTCTGG) | 2.6 |
| TATTAGGCATGGACCGGTTTTCCCGGTAATCCGTATTTGTG (site TATTAGGCTCA) | 0.459 |
| TATTAGGCATGGACCGGTTTTCCCGGTAATCCGTATTTGTG (site TATTCGGCTCA) | 0.00717 |
| TATTAGGCATGGACCGGTTTTCCCGGTAATCCGTATTTGTG (site TATTGGGCTCA) | 0 |
| TATTAGGCATGGACCGGTTTTCCCGGTAATCCGTATTTGTG (site TATTTGGCTCA) | 0.0156 |
| TATTATCCATGGACCGGTTTTCCCGGTAATCCGTATTTGCT (site AATTATCCTAG) | 0.494 |
| TATTATCCATGGACCGGTTTTCCCGGTAATCCGTATTTGCT (site CATTATCCTAG) | 0 |
| TATTATCCATGGACCGGTTTTCCCGGTAATCCGTATTTGCT (site GATTATCCTAG) | 0 |
| TATTATCCATGGACCGGTTTTCCCGGTAATCCGTATTTGCT (site TATTATCCTAG) | 0.622 |
| TATTATGCATGGACCGGTTTTCCCGGTAATCCGTATTTGGA (site AATTATGCTTC) | 0.364 |
| TATTATGCATGGACCGGTTTTCCCGGTAATCCGTATTTGGA (site CATTATGCTTC) | 0.525 |
| TATTATGCATGGACCGGTTTTCCCGGTAATCCGTATTTGGA (site GATTATGCTTC) | 0.00418 |
| TATTATGCATGGACCGGTTTTCCCGGTAATCCGTATTTGGA (site TATTATGCTTC) | 0.177 |
| TATTCGCCATGGACCGGTTTTCCCGGTAATCCGTATTTGGG (site TATTCGCCTCC) | 0.0547 |

| Sequence | recombinant UMI read abundance (log10) |
| --- | --- |
| TATTGACCATGGACCGGTTTTCCCGGTAATCCGTATTTGCG (site TATTGACCTCG) | 0.00685 |
| TATTGGACATGGACCGGTTTTCCCGGTAATCCGTATTTGAC (site AATTGGACTGT) | 0 |
| TATTGGACATGGACCGGTTTTCCCGGTAATCCGTATTTGAC (site CATTGGACTGT) | 0.701 |
| TATTGGACATGGACCGGTTTTCCCGGTAATCCGTATTTGAC (site GATTGGACTGT) | 0.0156 |
| TATTGGACATGGACCGGTTTTCCCGGTAATCCGTATTTGAC (site TATTGGACTGT) | 1.68 |
| TATTTCCCATGGACCGGTTTTCCCGGTAATCCGTATTTGTG (site TATTTCCCTCA) | 0.213 |
| TATTTCGCATGGACCGGTTTTCCCGGTAATCCGTATTTGTG (site TATTTAGCTCA) | 0.00938 |
| TATTTCGCATGGACCGGTTTTCCCGGTAATCCGTATTTGTG (site TATTTCGCTCA) | 0.00881 |
| TATTTCGCATGGACCGGTTTTCCCGGTAATCCGTATTTGTG (site TATTTGGCTCA) | 0 |
| TATTTCGCATGGACCGGTTTTCCCGGTAATCCGTATTTGTG (site TATTTTGCTCA) | 0.00403 |
| TATTTGCCATGGACCGGTTTTCCCGGTAATCCGTATTTGTG (site TATTTGACTCA) | 0.0205 |
| TATTTGCCATGGACCGGTTTTCCCGGTAATCCGTATTTGTG (site TATTTGCCTCA) | 0.0197 |
| TATTTGCCATGGACCGGTTTTCCCGGTAATCCGTATTTGTG (site TATTTGGCTCA) | 0.00691 |
| TATTTGCCATGGACCGGTTTTCCCGGTAATCCGTATTTGTG (site TATTTGTCTCA) | 0.0226 |
| TATTTGGCATGGACCGGTTTTCCCGGTAATCCGTATTTGAG (site TATTTGGCTCA) | 0.0138 |
| TATTTGGCATGGACCGGTTTTCCCGGTAATCCGTATTTGAG (site TATTTGGCTCC) | 0.00558 |
| TATTTGGCATGGACCGGTTTTCCCGGTAATCCGTATTTGAG (site TATTTGGCTCG) | 0.012 |
| TATTTGGCATGGACCGGTTTTCCCGGTAATCCGTATTTGAG (site TATTTGGCTCT) | 0.00868 |
| TATTTGGCATGGACCGGTTTTCCCGGTAATCCGTATTTGTA (site TATTTGGCTAA) | 0.00533 |
| TATTTGGCATGGACCGGTTTTCCCGGTAATCCGTATTTGTA (site TATTTGGCTCA) | 0.0148 |
| TATTTGGCATGGACCGGTTTTCCCGGTAATCCGTATTTGTA (site TATTTGGCTGA) | 0 |
| TATTTGGCATGGACCGGTTTTCCCGGTAATCCGTATTTGTA (site TATTTGGCTTA) | 0.00725 |
| TATTTGGCATGGACCGGTTTTCCCGGTAATCCGTATTTGTT (site TATTTGGCTAA) | 0.17 |
| TATTTGGCATGGACCGGTTTTCCCGGTAATCCGTATTTGTT (site TATTTGGCTCA) | 0.0085 |
| TATTTGGCATGGACCGGTTTTCCCGGTAATCCGTATTTGTT (site TATTTGGCTGA) | 0 |
